Results on four compounds are retold here after patent US20220403337A1, “CELL REPROGRAMMING METHOD” (priority 2019, published 2022).

Type in all cases: cell-based
For data set [1], the system named is Normal human skin fibroblasts (adult). The data set can be described thus: Reprogramming of human skin fibroblasts: change in form, spheroid formation, alkaline phosphatase stain. On the procedure: (§1) Normal human skin fibroblasts (adult) (Takara Bio) were seeded to a spheroid plate, and after 24 to 48 hours, medium exchange was performed on a D-MEM (Low Glucose) medium to which 2-mercaptoethanol diluted by 1/100000 (142 μM) was added. Then, after three to four days, medium exchange was performed again on the same D-MEM medium.
Then, after three or four days, the medium exchange was performed again on the same medium.
The alkaline phosphatase reaction of the cells finally obtained by the above-described culture was examined. The stain of alkaline phosphatase was performed in accordance with the operating manual attached to the kit using Alkaline Phosphatase Live Stain (Invitrogen). Specifically, the cells were cultured for 30 minutes in a medium in which a staining fluid (AP Live Stain) attached to the kit diluted by 500 times was added in the D-MEM. Afterwards, the medium was exchanged and cleaning was performed for five minutes x two times.
(§2) The processes similar to those of the above-described items 1 and 2 were performed to examine the concentration of 2-mercaptoethanol. Specifically, except that the concentration of 2-mercaptoethanol was set to 0.142 μM, 1.42 μM, 14.2 μM, 142 μM, 1.42 mM, 14.2 mM, and 142 mM, the operations same as those in the items 1 and 2 were performed.
Similarly to the item 1, after performing the culture in the D-MEM medium containing the 2-mercaptoethanol (142 μM), LIF (wako, used by 1:1000), ACTH (wako, 10 μmol/L), bFGF (wako, 0.34 nmol/L), and AR-A014418 (Merck, 3 μM) were added in this medium and further the cells were cultured for one week. As a result, both of spheroid formation of the cells and the alkaline phosphatase stain were observed.
In the item 1, when (i) only the LIF, (ii) only the ACTH, or (iii) only the LIF and the ACTH were added to the ADSC-4 medium for culture, spheroid formation of the cells and the alkaline phosphatase stain were observed under any conditions.

The subject of data set [2] is normal human skin fibroblast (adult). The data set can be described thus: Effect by CCL2 added to LIF on reprogramming (cell form). The method, then:
The CCL2 was added to the LIF and an influence given to reprogramming was verified. In accordance with Working Example 1, while medium exchange was performed on a normal human skin fibroblast (adult) (the Takara Bio) in a D-MEM medium containing 2-mercaptoethanol (142 μM) for three to four days, culture was performed for seven days. Next, culture was performed for additional seven days in a medium in which (i) only LIF, (ii) LIF+CCL2 (10 ng/mL), or (iii) LIF+CCL2 (100 ng/mL) were added to an ADSC-4 medium. Note that the LIF was used by 1:1000.

Data set [3] concerns Nanog, Klf4, Oct4, and Sox2. The data set can be described thus: PCR for expression of undifferentiated markers. As to conditions: human skin fibroblasts processed with 2-mercaptoethanol and reprogrammed (FIG. 4 lane 3). On the procedure:
Whether gene expression had been generated was examined on Nanog, Klf4, Oct4, and Sox2 as the undifferentiated markers. The RNA was collected from the cells using a RNeasy Mini Kit (QIAGEN). PCR was performed on the above-described various kinds of undifferentiated markers using the method described in Cell. 2007 Nov 30; 131(5): 861-72.

Data set [4] deals with Normal human skin fibroblasts (adult). The data set can be described thus: Extinction of cells at high 2-mercaptoethanol concentration. As to conditions: D-MEM medium. The method, then: as §1, §2
Where [5] appears, read: after 2-mercaptoethanol (142 μM) step, only the named factor(s) added to ADSC-4 medium.
Where [6] appears, read: culture only in D-MEM containing 2-mercaptoethanol (142 μM), no step (b).

A value given as a limit tells only on which side of the number the result lay.

For the compound “LIF: leukemia inhibiting factor, OCT3/4 transcription stimulating factor (wako, used by 1:1000)”, in data set [1] (setting [5]), the “alkaline phosphatase stain (strength)” value is “especially observed strongly”; the “spheroid formation of the cells and alkaline phosphatase stain” value is “observed”. The “change in form of the cells” value in data set [2] ((i) only LIF 1:1000 in ADSC-4, seven days, after 2-mercaptoethanol (142 μM) seven days) is listed as “confirmed”.
For `OCCS` [2-mercaptoethanol], the “expression of undifferentiated markers Nanog, Klf4, Oct4, and Sox2 (PCR bands around targeted sizes)” value in data set [3] is listed as “bands were able to be confirmed”. In addition, the “change in form of the cells” value in data set [1] (142 μM in D-MEM (Low Glucose), cultured for one week) is given as “the change in form of the cells was confirmed”. The “spheroid formation of the cells and alkaline phosphatase stain” value in data set [1] (142 μM in D-MEM, then LIF, ACTH, bFGF, AR-A014418 added in this same medium, one further week) was “observed”; in data set [1] (2-mercaptoethanol at 0.142 μM to 1.42 mM in step (a), then ADSC-4 with LIF, ACTH, bFGF, AR-A014418), “observed”. In data set [1] (142 μM one week, then one week in ADSC-4 with LIF 1:1000, ACTH 10 μmol/L, bFGF 0.34 nmol/L, AR-A014418 3 μM), the spheroid formation entry was “forming spheroids”. In data set [1] (142 μM one week, then one week in ADSC-4 with LIF, ACTH, bFGF, AR-A014418), the “alkaline phosphatase stain (AP Live Stain, fluorescence microscope)” value is recorded as “the stain was observed”. The alkaline phosphatase stain result is on record as “especially strongly observed” in data set [1] (2-mercaptoethanol at 14.2 μM to 1.42 mM in step (a), then ADSC-4 with LIF, ACTH, bFGF, AR-A014418) and “weak” in data set [1] (setting [6]). In data set [1] (setting [6]), the “spheroid formation of the cells” value is listed as “observed”. In data set [4], the “2-mercaptoethanol concentration at which extinction of the cells was observed” value is given as at least 14.2 mM.
Regarding “CCL2: chemokine (C-C motif) ligand 2, OCT3/4 transcription stimulating factor”, the “cell aggregation on addition of CCL2 to LIF” value in data set [2] (contours between cells clarified, divergence of cell adhesion recognized (FIG. 13D)) is on record as “remarkable”.
For the compound “ACTH: adrenocorticotropic hormone (wako, 10 μmol/L) (SYSMEHFRWGKPVGKKRRPVKVYPNGAEDESAEAFPLEF; Corticotropin; UniProt P01189 138-176, looked up)”, the “spheroid formation of the cells and alkaline phosphatase stain” value in data set [1] (setting [5]) is recorded as “observed”.
